{
  "source": "paper PMC6441019",
  "about": "“Prospective discovery of small molecule enhancers of an E3 ligase-substrate interaction” (Nature Communications, 2019)",
  "key": {"[1]": {"target": "T1, endogenous S37A mutant β-catenin (Homo sapiens, UniProt P35222+Q9Y297, S37A)", "T1 construct": "host or cells: TOV-112D", "T1 sequence (P35222 whole entry S37A)": "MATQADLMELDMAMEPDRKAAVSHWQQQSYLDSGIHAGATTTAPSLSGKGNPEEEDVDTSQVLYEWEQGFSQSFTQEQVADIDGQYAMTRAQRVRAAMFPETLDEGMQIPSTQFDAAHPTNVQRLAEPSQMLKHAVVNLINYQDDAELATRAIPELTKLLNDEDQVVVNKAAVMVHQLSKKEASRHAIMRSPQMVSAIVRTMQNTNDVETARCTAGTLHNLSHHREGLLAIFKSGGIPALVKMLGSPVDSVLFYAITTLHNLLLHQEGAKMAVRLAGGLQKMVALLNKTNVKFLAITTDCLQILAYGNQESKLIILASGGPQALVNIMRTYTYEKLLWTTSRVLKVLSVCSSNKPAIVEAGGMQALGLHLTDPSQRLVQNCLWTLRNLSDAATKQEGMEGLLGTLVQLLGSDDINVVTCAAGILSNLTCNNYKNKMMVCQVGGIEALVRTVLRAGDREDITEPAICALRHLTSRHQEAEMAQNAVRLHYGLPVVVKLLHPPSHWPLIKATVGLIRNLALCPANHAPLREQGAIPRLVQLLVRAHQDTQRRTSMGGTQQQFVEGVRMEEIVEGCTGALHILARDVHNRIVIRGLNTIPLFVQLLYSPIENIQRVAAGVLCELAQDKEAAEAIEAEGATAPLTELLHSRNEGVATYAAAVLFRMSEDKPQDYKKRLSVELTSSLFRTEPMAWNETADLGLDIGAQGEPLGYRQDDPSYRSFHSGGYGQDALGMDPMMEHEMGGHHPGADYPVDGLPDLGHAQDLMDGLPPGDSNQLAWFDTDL", "T1 sequence (Q9Y297 whole entry)": "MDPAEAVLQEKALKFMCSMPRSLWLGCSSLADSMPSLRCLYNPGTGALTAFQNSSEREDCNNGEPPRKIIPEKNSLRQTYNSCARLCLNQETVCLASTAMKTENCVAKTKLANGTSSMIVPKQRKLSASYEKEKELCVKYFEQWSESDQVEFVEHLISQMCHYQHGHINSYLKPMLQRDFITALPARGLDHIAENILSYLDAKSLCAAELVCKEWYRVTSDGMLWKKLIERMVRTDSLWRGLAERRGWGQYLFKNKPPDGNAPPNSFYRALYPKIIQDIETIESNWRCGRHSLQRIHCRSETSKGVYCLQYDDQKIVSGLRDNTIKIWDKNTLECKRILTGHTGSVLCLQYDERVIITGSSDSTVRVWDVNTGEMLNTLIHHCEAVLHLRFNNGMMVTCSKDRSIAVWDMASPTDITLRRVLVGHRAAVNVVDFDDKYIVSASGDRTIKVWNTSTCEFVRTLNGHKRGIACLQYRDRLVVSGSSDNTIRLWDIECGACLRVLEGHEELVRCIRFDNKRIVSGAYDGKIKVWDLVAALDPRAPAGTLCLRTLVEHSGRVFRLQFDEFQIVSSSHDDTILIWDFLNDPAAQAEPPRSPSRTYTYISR", "T1 sequence (P63208 whole entry partner)": "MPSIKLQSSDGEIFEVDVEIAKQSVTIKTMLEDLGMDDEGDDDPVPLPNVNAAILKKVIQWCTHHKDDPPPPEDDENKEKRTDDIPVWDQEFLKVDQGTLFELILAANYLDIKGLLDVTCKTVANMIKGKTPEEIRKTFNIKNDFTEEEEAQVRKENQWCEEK", "T1 sequence (Q13616 whole entry partner)": "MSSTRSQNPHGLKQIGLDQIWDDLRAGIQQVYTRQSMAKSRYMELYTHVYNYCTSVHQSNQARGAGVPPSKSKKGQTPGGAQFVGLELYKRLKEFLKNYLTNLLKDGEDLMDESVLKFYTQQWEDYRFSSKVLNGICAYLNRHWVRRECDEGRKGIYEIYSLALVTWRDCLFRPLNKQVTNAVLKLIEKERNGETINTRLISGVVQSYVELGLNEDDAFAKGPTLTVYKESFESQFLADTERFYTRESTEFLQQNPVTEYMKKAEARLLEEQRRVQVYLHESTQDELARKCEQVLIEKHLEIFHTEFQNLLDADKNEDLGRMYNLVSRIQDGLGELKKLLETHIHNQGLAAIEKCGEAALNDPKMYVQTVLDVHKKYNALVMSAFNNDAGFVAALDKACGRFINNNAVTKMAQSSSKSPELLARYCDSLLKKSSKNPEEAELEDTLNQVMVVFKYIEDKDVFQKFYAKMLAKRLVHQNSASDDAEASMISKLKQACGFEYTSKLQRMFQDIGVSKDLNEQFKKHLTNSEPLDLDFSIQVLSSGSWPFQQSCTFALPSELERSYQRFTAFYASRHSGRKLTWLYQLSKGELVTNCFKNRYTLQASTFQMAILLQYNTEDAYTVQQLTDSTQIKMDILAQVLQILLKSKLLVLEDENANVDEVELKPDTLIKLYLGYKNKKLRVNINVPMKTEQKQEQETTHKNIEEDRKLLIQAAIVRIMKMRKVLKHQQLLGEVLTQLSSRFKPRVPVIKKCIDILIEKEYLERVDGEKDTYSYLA", "T1 sequence (P62877 whole entry partner)": "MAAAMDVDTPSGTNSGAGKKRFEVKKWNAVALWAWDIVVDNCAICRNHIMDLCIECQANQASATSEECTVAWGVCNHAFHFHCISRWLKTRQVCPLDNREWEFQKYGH", "T1 sequence (Q15843 1-76 partner limits assumed)": "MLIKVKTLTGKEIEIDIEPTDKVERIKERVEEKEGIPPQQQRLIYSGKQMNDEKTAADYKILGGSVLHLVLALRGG", "test": "Degradation of endogenous S37A β-catenin in TOV-112D cells", "assay_type": "cell-based"}, "[2]": {"target": "T2, Ser33/S37A β-catenin peptide ubiquitylation by SCFβ-TrCP (Homo sapiens, UniProt P35222+Q9Y297, S37A)", "T2 construct": "Ubiquitylation of Ser33/S37A β-catenin peptide (residues 17–60) by SCF^β-TrCP; 6xHis-SMT3 (N, cleaved yes); made in house; host or cells: E. coli (β-TrCP1/Skp1); E. coli or SF9 (Cul1-Rbx1)", "T2 sequence (Q9Y297 1-569 isoform Q9Y297-2, stated change not applied)": "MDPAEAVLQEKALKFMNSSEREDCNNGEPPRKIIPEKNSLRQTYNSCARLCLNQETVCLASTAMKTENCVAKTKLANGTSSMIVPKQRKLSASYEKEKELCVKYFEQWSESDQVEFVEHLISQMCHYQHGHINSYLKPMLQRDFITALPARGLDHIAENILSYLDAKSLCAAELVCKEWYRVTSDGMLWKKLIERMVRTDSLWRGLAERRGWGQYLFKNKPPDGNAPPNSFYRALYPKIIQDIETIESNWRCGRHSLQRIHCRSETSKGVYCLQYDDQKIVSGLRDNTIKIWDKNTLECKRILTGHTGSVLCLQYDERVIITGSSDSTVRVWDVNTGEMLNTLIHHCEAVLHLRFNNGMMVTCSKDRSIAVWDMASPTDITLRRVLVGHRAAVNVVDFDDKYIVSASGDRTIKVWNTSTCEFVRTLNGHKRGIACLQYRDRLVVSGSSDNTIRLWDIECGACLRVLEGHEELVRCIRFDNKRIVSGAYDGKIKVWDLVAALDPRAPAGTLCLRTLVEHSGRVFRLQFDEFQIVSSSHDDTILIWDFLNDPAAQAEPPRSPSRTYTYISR", "T2 sequence (P63208 whole entry partner, the tested form may be a part)": "as the sequence (P63208 whole entry partner) above", "T2 sequence (Q13616 whole entry partner, the tested form may be a part)": "as the sequence (Q13616 whole entry partner) above", "T2 sequence (P62877 whole entry partner, the tested form may be a part)": "as the sequence (P62877 whole entry partner) above", "T2 sequence (Q15843 1-76 partner limits assumed)": "as the sequence (Q15843 1-76 partner limits assumed) above", "T2 sequence (P35222 17-60 S37A limits assumed)": "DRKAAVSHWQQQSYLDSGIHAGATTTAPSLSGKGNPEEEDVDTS", "test": "In vitro ubiquitylation of Ser33/S37A β-catenin peptide", "assay_type": "biochemical", "experimental": "(§1) Four micromolar of fluorescently-labeled β-catenin peptide (residues 17–60) were ubiquitylated in a buffer containing 25 mM Tris Cl (pH 7.5), 50 mM NaCl, 5 mM MgCl2, 2 mM ATP, and 1 mM DTT at room temperature in the presence of 62.5 μM Ubiquitin, 125 nM Ube1, 1.75 μM Cdc34A, and 100 nM neddylated SCF^β-TrCP in the presence or absence of compound (as indicated). Typically, individual reaction mixes with either Ubiquitin, Ube1 and Cdc34A or β-catenin, SCF^β-TrCP and compound were preincubated and subsequently mixed to initiate β-catenin ubiquitylation. Reactions were quenched by SDS loading buffer, resolved by SDS-PAGE and imaged for fluorescence. For full length β-catenin protein ubiquitylation 400 nM β-catenin and 400 nM SCF^β-TrCP were used instead."}, "[3]": {"target": "T3, S33E/S37A β-catenin peptide binding to β-TrCP (Homo sapiens, UniProt P35222+Q9Y297, S33E/S37A)", "T3 construct": "titrating BODIPY-FL-labeled β-catenin peptides (residues 17-48) against 300 pM β-TrCP; 6xHis-SMT3 (N, cleaved yes); made in house; host or cells: E. coli (co-expressed with BirA)", "T3 sequence (Q9Y297 1-569 isoform Q9Y297-2, stated change not applied)": "as the sequence (Q9Y297 1-569 isoform Q9Y297-2, stated change not applied) above", "T3 sequence (P63208 whole entry partner, the tested form may be a part)": "as the sequence (P63208 whole entry partner) above", "T3 sequence (P35222 17-48 S33E/S37A limits assumed)": "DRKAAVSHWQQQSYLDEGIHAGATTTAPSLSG", "test": "TR-FRET binding enhancement assay, S33E/S37A peptide", "conditions": "1% binding saturation", "experimental": "(§2) Compounds were incubated in a 20 μl reaction volume with 300 pM biotinylated β-TrCP/Skp1 preincubated with 1.2 nM terbium-coupled streptavidin (Cisbio) and BODIPY-FL labeled β-catenin peptides (see figure legends for peptide details) in a white 384-well microplate (Perkin Elmer ProxiPlate), using a PBS buffer containing 0.01% Triton X-100 and 2 mM DTT with 2% final DMSO. […] Following 1-h incubation, plates were read for TR-FRET signal after excitation at 320 nm and read at 520 and 620 nm using an EnVision plate reader (Perkin Elmer). TR-FRET signal was calculated using a 520/620 nm ratio. Binding and enhancement data were fit to a standard Hill equation (Y = Bmin + (Bmax − Bmin)(X^h)/(X^h + EC50^h)) in Prism (GraphPad). Errors are standard error of the fit."}, "[4]": {"target": "T4, Ser33/S37A β-catenin peptide binding to β-TrCP (Homo sapiens, UniProt P35222+Q9Y297, S37A)", "T4 construct": "titrating BODIPY-FL-labeled β-catenin peptides (residues 17-48) against 300 pM β-TrCP; 6xHis-SMT3 (N, cleaved yes); made in house; host or cells: E. coli (co-expressed with BirA)", "T4 sequence (Q9Y297 1-569 isoform Q9Y297-2, stated change not applied)": "as the sequence (Q9Y297 1-569 isoform Q9Y297-2, stated change not applied) above", "T4 sequence (P63208 whole entry partner, the tested form may be a part)": "as the sequence (P63208 whole entry partner) above", "T4 sequence (P35222 17-48 S37A limits assumed)": "as the sequence (P35222 17-48 S33E/S37A limits assumed) above, with E17S counted along it", "test": "TR-FRET peptide binding assay, unphosphorylated Ser33/S37A peptide", "experimental": "as §2"}, "[5]": {"target": "T5, full-length S33E/S37A β-catenin protein ubiquitylation by SCFβ-TrCP (Homo sapiens, UniProt P35222+Q9Y297, S33E/S37A)", "T5 construct": "6xHis-SMT3 (N, cleaved yes); host or cells: HEK293T (β-catenin); E. coli (β-TrCP1/Skp1); E. coli or SF9 (Cul1-Rbx1)", "T5 sequence (Q9Y297 1-569 isoform Q9Y297-2, stated change not applied)": "as the sequence (Q9Y297 1-569 isoform Q9Y297-2, stated change not applied) above", "T5 sequence (P63208 whole entry partner)": "as the sequence (P63208 whole entry partner) above", "T5 sequence (Q13616 whole entry partner)": "as the sequence (Q13616 whole entry partner) above", "T5 sequence (P62877 whole entry partner)": "as the sequence (P62877 whole entry partner) above", "T5 sequence (Q15843 1-76 partner limits assumed)": "as the sequence (Q15843 1-76 partner limits assumed) above", "T5 sequence (P35222 whole entry S33E/S37A)": "as the sequence (P35222 whole entry S37A) above, with S33E counted along it", "test": "In vitro ubiquitylation of full-length S33E/S37A β-catenin protein", "assay_type": "biochemical", "experimental": "as §1"}, "[6]": {"target": "T3, S33E/S37A β-catenin peptide binding to β-TrCP", "test": "TR-FRET peptide binding assay, S33E/S37A peptide", "conditions": "read-out: binding affinity of S33E/S37A peptide", "experimental": "as §2"}, "[7]": {"target": "T6, S33E/S37A β-catenin:β-TrCP interaction (Homo sapiens, UniProt P35222+Q9Y297, S33E/S37A)", "T6 construct": "a ternary complex with the full-length S33E/S37A β-catenin and β-TrCP in cells; evaluated for their ability to pull down endogenous β-TrCP; expressed in transfected cells; host or cells: HEK293T (transient, FuGeneHD); β-TrCP endogenous", "T6 sequence (P35222 whole entry S33E/S37A)": "as the sequence (P35222 whole entry S37A) above, with S33E counted along it", "T6 sequence (Q9Y297 whole entry, stated change not applied)": "as the sequence (Q9Y297 whole entry) above", "T6 sequence (P63208 whole entry partner)": "as the sequence (P63208 whole entry partner) above", "test": "Pull down from HEK293T cells treated with compound", "assay_type": "cell-based", "conditions": "50 μM, 6 h", "experimental": "Pull down from cells treated with compound: HEK293T cells were plated in 10 cm dishes at a density of 1.2 × 10^6 cells per plate. Cells were transfected 24 h later with 2.5 µg of a WT or S33E/S37A Myc/FLAG-tagged β-catenin expression construct using the transfection reagent FuGeneHD. […] Cells were then liberated from 10 cm dishes using a cell scraper, pelleted, washed with PBS, resuspended in an equal volume of hypotonic lysis buffer (20 mM HEPES 7.5, 5 mM KCl, 1.5 mM MgCl2, 2 mM DTT, 0.01% TX-100, protease and phosphatase inhibitors, 1% DMSO), and sheered by eight passages through 21 G and 25 G needles. Samples were then supplemented up to 150 mM NaCl and clarified by centrifugation. Thirty microliters of each lysate was incubated over 10 µL of anti-c-myc magnetic beads (Pierce, Catalog #PI88842) and incubated at room temp with rotation for 30 min. Beads were pelleted, washed twice with lysis buffer, and resuspended in SDS loading buffer. Samples were analyzed by western blot."}, "[8]": {"target": "T6, S33E/S37A β-catenin:β-TrCP interaction", "test": "Lysate pulldown with recombinant β-catenin (HEK293T lysate)", "conditions": "anti-myc pulldown", "experimental": "Lysate pulldown with recombinant β-catenin: HEK293T cells were lysed by freeze thaw in lysis buffer (1× PBS, 2 mM DTT, 0.01% Triton X-100, proteases inhibitors (Sigma, P2714 and 11836170001), phosphatase inhibitors (Sigma, P5726 and P0044), 5 nM Calyculin A (Sigma, C5552)) at 85 µL of buffer to 1 × 10^6 cells. Lysates were clarified by centrifugation at 20,000 × g for 20 min at 4 °C and the supernatant was collected for subsequent use. Purified Myc/FLAG-tagged wild-type β-catenin protein at 2 µM was pretreated with 1 µM GSK3β (EMD Millipore, 14-306), 50 nM Axin (Enzo Life Sciences, ENZ-PRT130-0020), 200 nM CK1α (Life Technologies, PV3850), and 2 mM ATP at 30 °C for 60 min. This phosphorylated β-catenin, unphosphorylated WT β-catenin, or S33E/S37A β-catenin were each diluted into lysate to 100 nM, at the indicated compound concentrations, at a final DMSO concentration of 1% DMSO. Thirty-five microliters of these mixtures were incubated over 10 µL of anti-c-myc magnetic beads (Pierce, Catalog #PI88842), with rotation, at room temperature for 2 h. Beads were then pelleted, washed twice with 200 µL cold wash buffer (1×PBS, 2 mM DTT, 0.01% TX-100, 1% DMSO) containing compound at the same incubation concentration. Washed beads were resuspended in 30 µL SDS loading dye and analyzed by western analysis."}},
  "data": [
    {"smiles": "N#Cc1cccc2c1CN(C(=O)c1c(Sc3c(Cl)cccc3Cl)cc(C(F)(F)F)[nH]c1=O)C2", "note": "[NRX-252114]", "values": [
      {"measurement": "degradation of endogenous S37A mutant β-catenin", "setting": "[1]", "value": "did not induce degradation"},
      {"measurement": "ubiquitylation of unphosphorylated Ser33/S37A β-catenin peptides", "setting": "[2]", "value": "potentiates the ubiquitylation"},
      {"measurement": "EC50", "setting": "[3]", "value": "1100 ± 30", "unit": "nM"},
      {"measurement": "enhancement in PPI binding affinity", "setting": "[4]; 20 μM NRX-252114", "value": "> 500", "unit": "fold"},
      {"measurement": "Kd", "setting": "[4]; read-out: binding affinity of non-phosphorylated peptide", "value": 180, "unit": "nM"},
      {"measurement": "ligand concentration at which ubiquitin chain formation resembles WT β-catenin protein", "setting": "[5]", "value": "≥ 10", "unit": "µM"},
      {"measurement": "enhancement of ubiquitylation of S33E/S37A β-catenin protein", "setting": "[5]; varying concentration", "value": "markedly enhances"},
      {"measurement": "Kd", "setting": "[6]", "value": 6, "unit": "nM"},
      {"measurement": "S33E/S37A β-catenin:β-TrCP interaction in transfected cells", "setting": "[7]", "value": "robust S33E/S37A β-catenin:β-TrCP interaction"},
      {"measurement": "interaction of S33E/S37A β-catenin with endogenous β-TrCP in cell lysate", "setting": "[8]", "value": "dose-dependent interaction"}
    ]}
  ]
}
